Test results from patent US20250092419A1, “SYNTHETIC TARGETERS OF UBIQUITINATION AND DEGRADATION (STUDS) AS EFFECTORS FOR FEEDBACK CONTROL IN MAMMALIAN CELLS” (The Regents of the University of California, priority 2022, published 2025).
Where a SMILES comes first, the peptide text is derived from it. The star is where a group is joined. Cbz = O=C(OCc1ccccc1)*

How the values were obtained:
[1] = test system: proteasomal and lysosomal degradation pathways; assay: Inhibitor assays: rescue of GFP fluorescence in Jurkat T cells expressing STUD and GFP target; format: cell-based; settings: 5 μM MG-132, 1 μM MLN4924 or 100 nM Bafilomycin A1; 37 C for 5 hours; cells expressing functional STUD and GFP target
Experimental: 72 hours after removal of lentivirus, the Jurkat T cells and an untransduced control cell line were treated with either 5 μM of the proteasomal inhibitor MG-132, 1 μM of the cullin ring ligase inhibitor MLN4924, 100 nM of the lysosomal inhibitor Bafilomycin A1, or DMSO vehicle control and incubate at 37 C for 5 hours. Using flow cytometry to measure GFP fluorescence following treatment, it was observed that GFP fluorescence can indeed be rescued with MG-132 and MLN4924 when cells express both a functional STUD and a GFP target relative to DMSO vehicle control.
Inhibitor Assays: 100,000 cells were plated in a 96 well round bottom plate with either 5 μM MG-132 (Sigma-Aldrich #M7449-200UL), 1 μM MLN4924 (Active Biochem #A-1139), 100 nM Bafilomycin A1 (Enzo Life Sciences #BML-CM110-0100), or DMSO vehicle control and incubated at 37 C for 5 hours. After incubation, cells were pelleted by centrifugation at 400×g for 4 minutes. Supernatant was then removed and cells were washed once with 200 μL PBS. Cells were pelleted again (400×g for 4 minutes) and resuspended in flow buffer (PBS+2% FBS) for assay by flow cytometry.

[2] = test system: proteasome; assay: MG132 proteasome inhibitor treatment of primary human CD4+ T cells expressing GFP nanobody STUD; format: cell-based; settings: 5 uM MG132, three hours; cells expressing functional nanobody STUD (nanobody(K->R)+Bonger) only
Experimental: The mechanism of how the STUD reduces GFP was explored. Primary human CD4+ T cells expressing the GFP nanobody STUD were fed with the MG132 proteasome inhibitor and the change in fluorescence was measured over time. Cells expressing a functional STUD should display an increase in fluorescence over time as the proteasome inhibitor took effect.
Using proteasome inhibitor to explore cytosolic GFP mechanism: To ascertain the mechanism by which the STUD degrades cytosolic GFP, the cells were inoculated with 5 uM of the proteasome inhibitor MG132 for 1 and 3 hours. Cells were then washed with PBS and analyzed by flow cytometry. Using the same 2-plasmid system as described above, changes in GFP fluorescence relative to controls were measured.

[3] = test system: NALM6 target cells; assay: MLN dose response: ON switch CAR, lysis of NALM6 target cells by CD8+ primary human T cells; format: cell-based; settings: MLN4924 1 μM to 0.015625 μM; 72 hours at 37 C; antiCD19BBz CAR fused to SynZip plus memSTUD
Experimental: CD8+ primary human T cells were engineered with an antiCD19BBz CAR fused to a SynZip and a memSTUD that binds the SynZip using the same plasmids outlined in FIG. 14A by lentiviral transduction. As a control, CD8+ primary human T cells were lentivirally transduced with an antiCD19BBz and a SynZip memSTUD which cannot bind the CAR. These engineered cells and an untransduced control were cocultured with NALM6 target cells for 72 hours at 37 C in the presence of MLN4924 ranging from 1 μM to 0.015625 μM and a DMSO vehicle control. After coculture, target cell lysis was assayed by flow cytometry. Specific target cell lysis of each cell line relative to NALM6 cells cultured alone in the same conditions was then calculated.
Co-culture assays: For all assays, T cells and target cells were co-cultured at a 1:1 ratio with cell numbers varying per assay. All assays contained between 10,000 and 50,000 of each cell type. The Countess II Cell Counter (ThermoFisher) was used to determine cell counts for all assays set up. T cells and target cells were mixed in 96-well round bottom tissue culture plates in 200 μL T cell media, and then plates were centrifuged for 1 min at 400×g to initiate interaction of the cells prior to incubation at 37 C.
MLN dose response: 25,000 CD8+ primary human T cells were seeded into 96 well round bottom plates in 100 μL fresh media. […]

[4] = test system: cullin ring ligase; assay: MLN4924 rescue of STUD knockdown of CD19BBz CAR expression in CD8+ primary T cells; format: cell-based, human; settings: 1 μM MLN4924 for 5 hours at 37 C; CD19BBz CAR with STUD
[5] = test system: CAR-SZ17 fusion; assay: Degradation of CAR-SZ17 fusion in Jurkat cells; format: cell-based; settings: degron directly fused to the CAR
Experimental: The ability of the STUD to degrade a CAR in Jurkat cells was tested by generating a CAR construct with SynZIP17 fused to its C-terminus. However, while these STUDs worked to some extent, none of them were able to completely knockdown CAR expression (see FIG. 8).

[6] = biological target: GFP-SZ17 [GFP: P42212]; assay: cell-based or functional assay

Compound: CO/C1=C\C(C)=C\[C@@H](C)[C@@H](O)[C@@H](C)C/C(C)=C/C=C/[C@H](OC)[C@@H]([C@@H](C)[C@@H](O)[C@H](C)[C@@]2(O)C[C@@H](O)[C@H](C)[C@@H](C(C)C)O2)OC1=O [Bafilomycin A1]
- GFP fluorescence relative to DMSO vehicle control [1]: No changes to GFP fluorescence

Compound: CC(C)C[C@@H](C=O)NC(=O)[C@H](CC(C)C)NC(=O)[C@H](CC(C)C)NC(=O)OCc1ccccc1 [MG-132] (Cbz-Leu-Leu-Leu-aldehyde)
- change in GFP fluorescence over time [2]: increase in GFP fluorescence
- GFP fluorescence relative to DMSO vehicle control [1]: rescued

Compound: NS(=O)(=O)OC[C@@H]1C[C@@H](n2ccc3c(N[C@H]4CCc5ccccc54)ncnc32)C[C@@H]1O [MLN4924]
- specific target cell lysis [3]: dose dependent
- CAR expression (CAR fluorescence by antibody stain) [4]: rescue STUD knockdown of CAR expression
- GFP fluorescence relative to DMSO vehicle control [1]: rescued

Compound: Arg-Arg-Arg-Gly (RRRG) [Bonger degron]
- reduction of CAR expression [5]: over 90%

Compound: SynZIP18(K->R)-5xGS-RRRG (designed binder)
- median normalized GFP fluorescence (flow cytometry, Jurkat T cells), fold change [6]: 42 fold
